Our source for the AC50 values is patent publication US20120010177A1, “MicroRNA Modulators and Method for Identifying And Using The Same” (The Wistar Institute / North Carolina State University, priority 2008, published 2012).

Each structure is given as a SMILES string.

One test relates to miR-21. Put plainly: High throughput primary miR-21 FLuc reporter assay (concentration-response). It counts as cell-based, human. The note with it: HeLa Luc-miR-21 reporter, 48-hour incubation; read-out: AC50. The method, then:
Primary miR-21 Assay. The primary miR-21 FLuc reporter assay is carried out with HeLa cells expressing the Luc-miR-21 reporter using a 48-hour incubation time. Active compounds that increase the luciferase response are identified based upon inhibition of miR-21.
SAR. The concentration-response data for the entire high throughput screen is plotted and modeled by a four parameter logistic fit and SAR analysis is performed according to conventional approaches (Iglese, et al. (2006) Proc. Natl. Acad. Sci. USA […]:11473-8). In brief, Class 1.1 and 1.2 are full curves containing upper and lower asymptotes with efficacy ≧80% and <80%, respectively. Class 2.1 and 2.2 are incomplete curves having only one asymptote with efficacy ≧80% and <80%, respectively. Class 3 curves show activity at only the highest concentration or are poorly fit. […] For SAR analysis, compounds associated with Class 1 and 2.1 curves are clustered using LEADSCOPE® fingerprints. […] Compounds sharing a common scaffold form a series. Candidate series and singletons are chosen for follow up studies. For each lead or series, an appropriate library design method (e.g., point substitution library or matrix library) is selected. Typically, precursors are synthesized and a library of 15-25 compounds is produced for analysis in the above-described assays.
In general terms: A reporter such as luciferase makes a cellular process visible.
Regarding `Cc1ccc(C)c(-n2nnc(-c3nc(-c4ccc(Cl)cc4)no3)c2N)c1` [Compound 55], the AC50 amounted to 1.85 µM.

Staying with this test, now noted: Homo sapiens, HeLa, 48 h, HeLa Luc-miR-21 reporter, 48-hour incubation; read-out: AC50.
On to `Cc1cccc(-n2nnc(-c3nc(-c4cccs4)no3)c2N)c1C` [Compound 9], for which the half-maximal activity concentration (AC50) was 0.09 µM.

Turning to `Nc1c(-c2nc(-c3cccs3)no2)nnn1-c1cccc(F)c1` [Compound 10], the half-maximal activity concentration (AC50) was found to be 0.21 µM.

Regarding `Cc1cccc(-n2nnc(-c3nc(-c4cccs4)no3)c2N)c1` [Compound 11], the AC50 came out at 0.33 µM.

Regarding `Nc1c(-c2nc(-c3ccccc3Cl)no2)nnn1-c1ccccc1F` [Compound 12], the AC50 was 0.83 µM.

Consider `COc1cccc(-n2nnc(-c3nc(-c4cccs4)no3)c2N)c1` [Compound 13], for which the AC50 turned out to be 1.04 µM.

As to `Cc1ccc(-n2nnc(-c3nc(-c4cccs4)no3)c2N)cc1C` [Compound 14], the AC50 came out at 1.65 µM.

On to `CCc1ccc(-n2nnc(-c3nc(-c4cccs4)no3)c2N)cc1` [Compound 15], for which the concentration at half-maximal activity (AC50) is 1.17 µM.

In the case of `COc1ccc(C)cc1-n1nnc(-c2nc(-c3ccccc3Cl)no2)c1N` [Compound 16], the AC50 was 4.65 µM.

As for `COc1ccc(-n2nnc(-c3nc(-c4cccs4)no3)c2N)cc1` [Compound 17], the half-maximal activity concentration (AC50) came out at 0.58 µM.

Regarding `COc1ccc(-c2noc(-c3nnn(-c4cc(C)ccc4C)c3N)n2)cc1` [Compound 18], the AC50 was 1.47 µM.

`CCc1cccc(-n2nnc(-c3nc(-c4cccs4)no3)c2N)c1` [Compound 19]: the AC50 worked out at 1.65 µM.

As to `Cc1cccc(-n2nnc(-c3nc(-c4ccccc4)no3)c2N)c1C` [Compound 20], the AC50 was 1.85 µM.

As to `Cc1ccc(C)c(-n2nnc(-c3nc(-c4ccc(Cl)cc4)no3)c2N)c1` [Compound 21], the AC50 stood at 1.31 µM.

As to `Nc1c(-c2nc(-c3cccs3)no2)nnn1-c1ccccc1Cl` [Compound 22], the concentration at half-maximal activity (AC50) was found to be 0.09 µM.

Regarding `CCOc1ccccc1-n1nnc(-c2nc(-c3ccccc3)no2)c1N` [Compound 23], the half-maximal activity concentration (AC50) turned out to be 3.69 µM.

Regarding `COc1cccc(NC(=O)Cn2nnc(-c3nc(-c4ccccc4)no3)c2N)c1` [Compound 24], the AC50 was 10.4 µM.

`Nc1c(-c2nc(-c3cccs3)no2)nnn1-c1cccc(Cl)c1` [Compound 25]: the AC50 was found to be 4.14 µM.

On to `CCc1cccc(-n2nnc(-c3nc(-c4ccccc4Cl)no3)c2N)c1` [Compound 26], for which the AC50 was 16.5 µM.

As for `Cc1ccc(-c2noc(-c3nnn(CC(=O)Nc4cccc(C(F)(F)F)c4)c3N)n2)cc1` [Compound 27], the concentration at half-maximal activity (AC50) was 0.74 µM.

For `O=c1ccc2ccc(OCc3nnc(-c4ccccc4Br)o3)cc2o1` [Compound 28], the AC50 came to 11.7 µM.

As to `Cc1ccc(CNc2nc(-c3ccco3)nn2S(C)(=O)=O)cc1` [Compound 29], the concentration at half-maximal activity (AC50) worked out at 0.58 µM.

As to `Cc1ccc(CNc2nc3nc(C)c(Cl)c(C)n3n2)cc1` [Compound 30], the AC50 came to 1.31 µM.

For `CC(C)c1ccc(CNc2nc(-c3ccco3)nn2C(=O)c2ccc([N+](=O)[O-])cc2)cc1` [Compound 31], the AC50 amounted to 2.07 µM.

For the molecule `COc1ccc(CNc2nc(-c3ccco3)nn2C(=O)CC(C)C)cc1` [Compound 32], the concentration at half-maximal activity (AC50) stood at 5.85 µM.

For `CN(C)c1ccc(CNc2nc(-c3ccco3)nn2S(C)(=O)=O)cc1` [Compound 33], the AC50 is 7.36 µM.

`O=C(c1ccc([N+](=O)[O-])cc1)n1nc(-c2ccccc2)nc1NCc1ccccc1` [Compound 34]: the AC50 stood at 8.26 µM.

`COc1ccccc1C(=O)n1nc(-c2ccco2)nc1NCc1ccc(Cl)cc1` [Compound 35]: the concentration at half-maximal activity (AC50) was found to be 14.7 µM.

Take `O=C(c1ccc(Cl)cc1)n1nc(-c2ccccc2)nc1NCc1ccco1` [Compound 36]: the AC50 is 14.7 µM.

With `Cc1ccc(-c2nc(NCc3ccco3)n(S(C)(=O)=O)n2)cc1` [Compound 37], the AC50 came to 14.7 µM.

Turning to `COc1ccc(CNc2nc(-c3ccccc3)nn2C(=O)c2ccc([N+](=O)[O-])cc2)cc1` [Compound 38], the half-maximal activity concentration (AC50) worked out at 14.7 µM.

Turning to `COCC(=O)n1nc(-c2ccco2)nc1NCc1ccccc1Cl` [Compound 39], the concentration at half-maximal activity (AC50) was determined as 16.5 µM.

`O=C(c1cccc([N+](=O)[O-])c1)n1nc(-c2ccccc2)nc1NCc1ccccc1` [Compound 40]: the concentration at half-maximal activity (AC50) was 16.5 µM.

With `CCS(=O)(=O)n1nc(-c2ccccc2)nc1NCc1ccco1` [Compound 41], the AC50 came to 18.5 µM.

As to `CC(=O)n1nc(-c2ccccc2)nc1NCc1cccs1` [Compound 42], the AC50 worked out at 18.5 µM.

On to `CC(=O)c1cnc2nc(SCc3ccccc3)nn2c1C` [Compound 43], for which the AC50 worked out at 5.21 µM.

Turning to `c1ccc(CSc2nnc3ccc(-c4cccs4)nn23)nc1` [Compound 44], the concentration at half-maximal activity (AC50) is 7.36 µM.

Take `Cc1cc(C)n2nc(SCCOc3ccccc3)nc2n1` [Compound 45]: the concentration at half-maximal activity (AC50) came to 7.36 µM.

As for `Fc1cccc(Cl)c1CSc1nnc2ccccn12` [Compound 46], the concentration at half-maximal activity (AC50) was 10.4 µM.

Take `Cc1cc(C)n2nc(SCCOc3ccccc3F)nc2n1` [Compound 47]: the half-maximal activity concentration (AC50) is 11.7 µM.

Regarding `COc1ccc(-c2nc(SCc3ccccc3)n(S(C)(=O)=O)n2)cc1` [Compound 48], the AC50 worked out at 13.1 µM.

Consider `Cc1ccccc1OCCSc1nnc(C)n1-c1ccccc1` [Compound 50], for which the concentration at half-maximal activity (AC50) was 14.7 µM.

Consider `Brc1ccc(CSc2nnc3ccccn23)cc1` [Compound 51], for which the AC50 came out at 16.5 µM.

For `Cc1cc(C)n2c(SCc3ccccc3Cl)nnc2n1` [Compound 52], the AC50 amounted to 16.5 µM.

For `O=C(CCc1ccccc1)n1nc(-c2ccco2)nc1SCc1ccccc1` [Compound 53], the AC50 worked out at 18.5 µM.

In the case of `Fc1ccccc1CSc1nnc(-c2cnccn2)n1Cc1ccco1` [Compound 54], the AC50 was found to be 20.8 µM.

Regarding `COc1ccc(-c2nn3c(C4CCCCC4)nnc3s2)cc1OC` [Compound 56], the AC50 is 3.29 µM.

Take `COc1cccc(OC)c1-c1nn2c(-c3ccco3)nnc2s1` [Compound 57]: the AC50 turned out to be 11.7 µM.

Regarding `COCCNC(=O)C(c1cccnc1)N(Cc1ccccc1)C(=O)Cn1nnc2ccccc21` (stereo not drawn) [Compound 58], the half-maximal activity concentration (AC50) turned out to be 13.1 µM.

In the case of `COc1nc(NCCO)nc(Nc2ccccc2F)n1` [Compound 59], the concentration at half-maximal activity (AC50) worked out at 4.65 µM.

For the molecule `Cc1nnc(SCc2nc(N)nc(Nc3ccccc3)n2)s1` [Compound 60], the half-maximal activity concentration (AC50) amounted to 11.7 µM.

With `Cc1ccc(Nc2ncnc(N)n2)cc1C` [Compound 61], the half-maximal activity concentration (AC50) turned out to be 13.1 µM.

Consider `Nc1nc(CSCc2ccccc2)nc(N2CCOCC2)n1` [Compound 62], for which the half-maximal activity concentration (AC50) was determined as 14.7 µM.

For `COc1nc(Nc2cccc(C(F)(F)F)c2)nc(OC)n1` [Compound 63], the AC50 turned out to be 14.7 µM.

For the molecule `Cc1ccccc1Nc1nc(N)nc(CSc2nnc3ccccn23)n1` [Compound 64], the concentration at half-maximal activity (AC50) came to 16.5 µM.

In the case of `Nc1ncnc(Nc2ccc(F)c(Cl)c2)n1` [Compound 65], the AC50 was 16.5 µM.

For `COc1ccc(Nc2nc(N)nc(CSc3nccc(C)n3)n2)cc1` [Compound 66], the AC50 was found to be 16.5 µM.

For `Nc1nc(Nc2ccccc2)nc(C(F)(F)F)n1` [Compound 67], the AC50 came to 16.5 µM.

With `Cc1c(Cl)cccc1Nc1nc(N)nc(CSC(=S)N2CCOCC2)n1` [Compound 68], the half-maximal activity concentration (AC50) amounted to 18.5 µM.

For `Cc1ccccc1Nc1nc(N)nc(CCC(=O)c2ccc(O)cc2)n1` [Compound 69], the half-maximal activity concentration (AC50) turned out to be 18.5 µM.

As for `COc1ccccc1Nc1nc(N)nc(CSc2nc(C)cc(C)n2)n1` [Compound 70], the AC50 amounted to 18.5 µM.

Turning to `Cc1ccccc1Nc1nc(N)nc(CN(C)c2ccccc2)n1` [Compound 71], the AC50 was found to be 18.5 µM.

For the molecule `CCc1ccc2oc(C(=O)Nc3nonc3CC)c(C)c2c1` [Compound 72], the half-maximal activity concentration (AC50) amounted to 2.93 µM.

On to `CCc1nonc1NC(=O)c1oc2ccc(C)cc2c1C` [Compound 73], for which the half-maximal activity concentration (AC50) was determined as 5.85 µM.

Take `CCc1nonc1NC(=O)c1oc2cc(C)c(C)cc2c1C` [Compound 74]: the concentration at half-maximal activity (AC50) turned out to be 5.85 µM.

In the case of `Cc1c(C(=O)N(C)C(C)c2ccccn2)oc2c(F)cccc12` (stereo not drawn) [Compound 75], the AC50 came out at 13.1 µM.

As to `COCC1CCN(C(=O)c2oc3c(F)cccc3c2C)C1` (stereo not drawn) [Compound 76], the AC50 was determined as 13.1 µM.

For `Cc1ccc2c(C)c(C(=O)N(C)C(C)c3ccncn3)oc2c1C` (stereo not drawn) [Compound 77], the AC50 turned out to be 13.1 µM.

Take `Cc1cc(Cl)c2oc(C(=O)N(CCO)Cc3ccccc3)c(C)c2c1` [Compound 78]: the AC50 worked out at 14.7 µM.

Consider `CCc1nonc1NC(=O)c1oc2ccccc2c1C` [Compound 79], for which the concentration at half-maximal activity (AC50) came to 14.7 µM.

Regarding `Cc1cc(Cl)c2oc(C(=O)N[C@H]3CC[C@H](O)CC3)c(C)c2c1` [Compound 80], the AC50 is 16.5 µM.

Take `Cc1cc(C)c2c(N)c(C(=O)Nc3ccccc3F)sc2n1` [Compound 81]: the concentration at half-maximal activity (AC50) is 1.47 µM.

For `Nc1c(C(=O)Nc2ccccc2Br)sc2nc(-c3cccs3)ccc12` [Compound 82], the concentration at half-maximal activity (AC50) worked out at 7.36 µM.

Take `Cc1cc(C)c2c(N)c(C(=O)Nc3ccccc3C(F)(F)F)sc2n1` [Compound 83]: the half-maximal activity concentration (AC50) worked out at 8.26 µM.

On to `Nc1c(C(=O)Nc2cc(F)ccc2F)sc2nc(-c3cccc(O)c3)ccc12` [Compound 84], for which the concentration at half-maximal activity (AC50) amounted to 11.7 µM.

Turning to `Nc1c(C(=O)Nc2ccc(S(=O)(=O)N3CCCC3)cc2)sc2nc3cc4c(cc3cc12)CCC4` [Compound 85], the AC50 was determined as 13.1 µM.

For `COCc1cc(C)nc2sc(C(=O)Nc3ccccc3O)c(N)c12` [Compound 86], the AC50 was determined as 13.1 µM.

For `Nc1c(C(=O)Nc2ccc(Cl)cc2F)sc2nc(-c3cccs3)ccc12` [Compound 87], the AC50 worked out at 16.5 µM.

One may read the AC50 as the midpoint of the concentration-response curve, whichever way the signal moves.
